In ChEMBL document CHEMBL2440076, “New triarylpyrazoles as broad-spectrum anticancer agents: design, synthesis, and biological evaluation” (Eur J Med Chem, 2013):
pIC50: −log10 of the molar value.

Legend:
BT-549 [1] = assay: Growth inhibition of human BT549 cells assessed as cell growth at 10 uM after 48 hrs by sulforhodamine B assay; type: functional; details: BT-549, 48 h, read-out: Activity
[2] = Growth inhibition of human Hs 578T cells assessed as cell growth at 10 uM after 48 hrs by sulforhodamine B assay; type: functional; details: read-out: Activity
MCF7 [3] = assay: Growth inhibition of human MCF7 cells assessed as cell growth at 10 uM after 48 hrs by sulforhodamine B assay; type: functional; details: MCF7, 48 h, read-out: Activity
DU-145 [4] = assay: Growth inhibition of human DU145 cells assessed as cell growth at 10 uM after 48 hrs by sulforhodamine B assay; type: functional; details: DU-145, 48 h, read-out: Activity
SN12C = assay: Growth inhibition of human SN12C cells assessed as cell growth at 10 uM after 48 hrs by sulforhodamine B assay; type: functional; details: read-out: Activity
CAKI-1 = assay: Growth inhibition of human CAKI-1 cells assessed as cell growth at 10 uM after 48 hrs by sulforhodamine B assay; type: functional; details: CAKI-1, 48 h, read-out: Activity
SW-620 = assay: Growth inhibition of human SW620 cells after 48 hrs by sulforhodamine B assay; type: functional; details: SW-620, 48 h
KM12 = assay: Growth inhibition of human KM12 cells after 48 hrs by sulforhodamine B assay; type: functional, cell-based; details: KM12, 48 h
NCI-H522 = assay: Growth inhibition of human NCI-H522 cells after 48 hrs by sulforhodamine B assay; type: functional; details: NCI-H522, 48 h
NCI-H460 = assay: Growth inhibition of human NCI-H460 cells after 48 hrs by sulforhodamine B assay; type: functional; details: NCI-H460, 48 h
NCI-H322M [5] = assay: Growth inhibition of human NCI-H322M cells after 48 hrs by sulforhodamine B assay; type: functional
A549 = assay: Growth inhibition of human A549/ATCC cells after 48 hrs by sulforhodamine B assay; type: functional; details: A549, 48 h
RPMI-8226 = assay: Growth inhibition of human RPMI8226 cells after 48 hrs by sulforhodamine B assay; type: functional, cell-based; details: RPMI-8226, 48 h
K562 [6] = assay: Growth inhibition of human K562 cells after 48 hrs by sulforhodamine B assay; type: functional; details: K562, 48 h
CCRF-CEM [7] = assay: Growth inhibition of human CCRF-CEM cells after 48 hrs by sulforhodamine B assay; type: functional
RXF 393 [8] = assay: Growth inhibition of human RXF393 cells assessed as cell growth at 10 uM after 48 hrs by sulforhodamine B assay; type: functional; details: RXF 393, 48 h, read-out: Activity
ACHN = assay: Growth inhibition of human ACHN cells assessed as cell growth at 10 uM after 48 hrs by sulforhodamine B assay; type: functional; details: read-out: Activity
OVCAR-5 [9] = assay: Growth inhibition of human OVCAR5 cells assessed as cell growth at 10 uM after 48 hrs by sulforhodamine B assay; type: functional; details: OVCAR-5, 48 h, read-out: Activity
OVCAR-4 = assay: Growth inhibition of human OVCAR4 cells assessed as cell growth at 10 uM after 48 hrs by sulforhodamine B assay; type: functional; details: OVCAR-4, 48 h, read-out: Activity
UACC-62 = assay: Growth inhibition of human UACC62 cells assessed as cell growth at 10 uM after 48 hrs by sulforhodamine B assay; type: functional; details: UACC-62, 48 h, read-out: Activity
IGROV-1 [10] = assay: Growth inhibition of human IGROV1 cells assessed as cell growth at 10 uM after 48 hrs by sulforhodamine B assay; type: functional; details: IGROV-1, 48 h, read-out: Activity
UACC-257 = assay: Growth inhibition of human UACC257 cells assessed as cell growth at 10 uM after 48 hrs by sulforhodamine B assay; type: functional; details: UACC-257, 48 h, read-out: Activity
U-251 = assay: Growth inhibition of human U251 cells assessed as cell growth at 10 uM after 48 hrs by sulforhodamine B assay; type: functional; details: U-251, 48 h, read-out: Activity
NCI-H322M [11] = assay: Growth inhibition of human NCI-H322M cells assessed as cell growth at 10 uM after 48 hrs by sulforhodamine B assay; type: functional; details: read-out: Activity
BT-549 [12] = assay: Growth inhibition of human BT549 cells after 48 hrs by sulforhodamine B assay; type: functional; details: BT-549, 48 h
MCF7 [13] = assay: Growth inhibition of human MCF7 cells after 48 hrs by sulforhodamine B assay; type: functional; details: MCF7, 48 h
DU-145 [14] = assay: Growth inhibition of human DU145 cells after 48 hrs by sulforhodamine B assay; type: functional; details: DU-145, 48 h
UO-31 = assay: Growth inhibition of human UO31 cells after 48 hrs by sulforhodamine B assay; type: functional; details: UO-31, 48 h
RXF 393 [15] = assay: Growth inhibition of human RXF393 cells after 48 hrs by sulforhodamine B assay; type: functional; details: RXF 393, 48 h
A498 = assay: Growth inhibition of human A498 cells after 48 hrs by sulforhodamine B assay; type: functional, cell-based; details: A498, 48 h
OVCAR-8 = assay: Growth inhibition of human OVCAR8 cells after 48 hrs by sulforhodamine B assay; type: functional; details: OVCAR-8, 48 h
OVCAR-5 [16] = assay: Growth inhibition of human OVCAR5 cells after 48 hrs by sulforhodamine B assay; type: functional; details: OVCAR-5, 48 h
IGROV-1 [17] = assay: Growth inhibition of human IGROV1 cells after 48 hrs by sulforhodamine B assay; type: functional; details: IGROV-1, 48 h
K562 [18] = assay: Growth inhibition of human K562 cells assessed as cell growth at 10 uM after 48 hrs by sulforhodamine B assay; type: functional; details: K562, 48 h, read-out: Activity
CCRF-CEM [19] = assay: Growth inhibition of human CCRF-CEM cells assessed as cell growth at 10 uM after 48 hrs by sulforhodamine B assay; type: functional; details: read-out: Activity
[20] = read-out: LC50 (the source's name)

In the case of O=C(Nc1cccc(-n2cc(-c3ccncc3)c(-c3ccc(Cl)c(O)c3)n2)c1)Nc1ccc(Cl)c(Cl)c1, the growth at 10 µM (BT-549 [1]) was 34.4%, the growth at 10 µM [2] was 36.1% and the growth at 10 µM (MCF7 [3]) was 5.74%. For the same compound, the growth at 10 µM (DU-145 [4]) was 25.9%, the growth at 10 µM (SN12C) was 18% and the growth at 10 µM (CAKI-1) was 22.5%. The GI50 (SW-620) was 1.46 µM, the TGI (SW-620) was over 32.5 µM and the CC50 (SW-620; [20]) was over 32.5 µM. For the same compound, the GI50 (KM12) was 1.01 µM, the TGI (KM12) was 4.47 µM and the CC50 (KM12; [20]) was 26.3 µM. For the same compound, the GI50 (NCI-H522) was 1.19 µM, the LC50 (concentration killing 50% of cells) (NCI-H522) was over 32.5 µM and the TGI (NCI-H522) was 10.6 µM. The GI50 (NCI-H460) was 0.993 µM, the LC50 (NCI-H460) was 24.2 µM and the TGI (NCI-H460) was 3.57 µM. It also gave a GI50 (NCI-H322M [5]) of 2.89 µM, a TGI (NCI-H322M [5]) of over 32.5 µM and a CC50 (NCI-H322M [5]; [20]) of over 32.5 µM. The GI50 (A549) was 1.01 µM, the LC50 (concentration killing 50% of starting cells) (A549) was over 32.5 µM and the TGI (A549) was over 32.5 µM. The GI50 (RPMI-8226) was 1.03 µM, the pIC50 (RPMI-8226) was 5.99 and the TGI (RPMI-8226) was over 32.5 µM. For the same compound, the CC50 (RPMI-8226; [20]) was over 32.5 µM, the GI50 (K562 [6]) was 1.41 µM and the TGI (K562 [6]) was over 32.5 µM. For the same compound, the CC50 (K562 [6]; [20]) was over 32.5 µM, the GI50 (CCRF-CEM [7]) was 1.03 µM and the LC50 (CCRF-CEM [7]) was over 32.5 µM. It also gave a TGI (CCRF-CEM [7]) of over 32.5 µM, a growth at 10 µM (RXF 393 [8]) of 4.46% and a growth at 10 µM (ACHN) of 12.8%. The growth at 10 µM (OVCAR-5 [9]) was 56.4%, the growth at 10 µM (OVCAR-4) was 29.4% and the growth at 10 µM (UACC-62) was 14.9%. For the same compound, the growth at 10 µM (IGROV-1 [10]) was 28.7%, the growth at 10 µM (UACC-257) was -17.3% and the growth at 10 µM (U-251) was 12.4%. The growth at 10 µM (NCI-H322M [11]) was 40.6%, the GI50 (BT-549 [12]) was 1.7 µM and the LC50 (50% lethal concentration) (BT-549 [12]) was over 32.5 µM. For the same compound, the TGI (BT-549 [12]) was 16.1 µM, the GI50 (MCF7 [13]) was 1.06 µM and the LC50 (MCF7 [13]) was over 32.5 µM. For the same compound, the TGI (MCF7 [13]) was over 32.5 µM, the GI50 (DU-145 [14]) was 1.5 µM and the LC50 (DU-145 [14]) was over 32.5 µM. For the same compound, the TGI (DU-145 [14]) was over 32.5 µM, the GI50 (UO-31) was 1.25 µM and the TGI (UO-31) was over 32.5 µM. The CC50 (UO-31; [20]) was over 32.5 µM, the GI50 (RXF 393 [15]) was 1 µM and the LC50 (concentration killing 50% of cells) (RXF 393 [15]) was over 32.5 µM. The TGI (RXF 393 [15]) was 6.4 µM, the GI50 (A498) was 0.94 µM and the pIC50 (A498) was 6.03. For the same compound, the TGI (A498) was 3.17 µM, the CC50 (A498; [20]) was over 32.5 µM and the GI50 (OVCAR-8) was 1.21 µM. The TGI (OVCAR-8) was over 32.5 µM, the CC50 (OVCAR-8; [20]) was over 32.5 µM and the GI50 (OVCAR-5 [16]) was 2.4 µM. The LC50 (concentration killing 50% of cells) (OVCAR-5 [16]) was over 32.5 µM, the TGI (OVCAR-5 [16]) was over 32.5 µM and the GI50 (IGROV-1 [17]) was 1.77 µM. For the same compound, the LC50 (concentration killing 50% of cells) (IGROV-1 [17]) was over 32.5 µM, the TGI (IGROV-1 [17]) was over 32.5 µM and the growth at 10 µM (K562 [18]) was 11.4%. It also gave a growth at 10 µM (CCRF-CEM [19]) of 13.7%.
